In US10369133B2, “Immunosuppressive compounds and therapeutics” (UNIVERSITY OF TENNESSEE RESEARCH FOUNDATION, priority 2013, dated 2019):

Experiments:
human CD3+ T cells = assay: Mixed lymphocyte reaction: proliferation of PHA-stimulated T cells; type: cell-based; conditions: data not shown; TNP 5 μM
Method: Briefly, human peripheral blood mononuclear cells PBMCs were isolated from human buffy coat using Ficoll-Paque. […] Results are presented as the mean±S.D., n=6.
PBMCs were isolated using Ficoll Paque. T cells were isolated from PBMCs using Dynabeads for. T cells were stimulated with PHA (1 μg/ml) for 24 h alone or in the presence of TNP (5 μM) or JP-3-110 (5 μM) for additional 4 days. The total number of PBMCs was measured using T4 Automatic Cell Counter (Nexcelom, Lawrence, Mass.). The extent of T cell activation was determined by measuring the level of IL-2, IL-2sRa, TNFα and IFN-γ in the medium using ELISA at indicated time.
Mixed lymphocytes reaction was used to determine the immunosuppressive effects of MPA and JP-3-110. T cells were purified using dynabeads from peripheral blood mononuclear cells (PBMCs), which were initially isolated from human buffy coat (FIG. 8A). […] The levels of IL-2, IL-2sRa, TNFα and IFNγ were detected by ELISA to study the effects of JP-3-110 and MPA on T cell activation.

NF-κB = NF-κB SEAP reporter gene assay in INS-1E cells; type: cell-based, rat; conditions: printed "at 504" (FIG. 2B: 5 μM); cytokine cocktail 10 ng/mL TNFα, 5 ng/mL IL-1β, 10 ng/mL IFN-γ; 24 hours
Method: Briefly, a plasmid construct containing NF-kB promoter and SEAP gene was transferred into INS-1E cells by lipofectamine. SEAP was then expressed and secreted into culture supernatant and allowed […] detection using a substrate PNPP under 405 nm. […] NF-kB activity was measured 24 hours after addition of cytokine cocktail (10 ng/mL TNFα, 5 ng/mL IL-1β and 10 ng/mL IFN-γ) alone or with JP-3-110 (5 μM) or TNP (5 μM) or MPA (5 μM). Blank, no cytokine stimulation. Cyt, cytokine cocktail. Results are presented as the mean±S.D., n=3.
INS-1E cells which were stably transfected with the SEAP gene containing the response-element for NF-κB were used to screen for anti-inflammatory activity. Briefly, 10^6 cells/well were seeded overnight followed by treatment with 10 ng/mL human recombinant TNFα and either TNP or hybrid drug JP-3-110 (1 μM). SEAP activity was measured 18 h later in supernatant samples (50 µL) using the NF-κB SEAPorter™ Assay Kit (IMGENEX, San Diego, Calif.) and a microplate luminometer. SEAP activity was normalized to the total protein content.

(1S,3R,4S,5R)—N-butyl-1,3,4,5-tetrahydroxycyclohexane-1-carboxamide [TNP, reference compound]
immunosuppressive effect in mixed lymphocytes reaction (human CD3+ T cells): did not observe any immunosuppressive effect | NF-κB activities in INS-1E cells (NF-κB): significantly reduced
